We go through 10 compounds from patent publication US20190352358A1, “COMPOUNDS, COMPOSITIONS AND USES THEREOF FOR IMPROVEMENT OF BONE DISORDERS” (ALIZE PHARMA III SAS, priority 2017, published 2019).

The subject of data set [1] is MC-3T3 E1 clone 4 (CL4) osteoblast cells. Put plainly: Osteocalcin expression during in vitro osteoblast differentiation, PEGylated analogs (Example 6). In kind it is cell-based. As to conditions: Table 17; test peptide 2 μg/mL; 18-21 day interval. As for the experimental part:
(§1) Each peptide was tested in a biologic assay measuring its ability to stimulate differentiation of osteoblast cells over a 18-21 day interval as assessed by the stimulation of osteocalcin protein synthesis. MC-3T3 E1 clone 4 (CL4) osteoblast cells were obtained from ATCC (Manassas, Va., USA). Cells were cultured in α-MEM containing 10% fetal bovine serum (FBS; Thermo Fisher Scientific, Pittsburgh, Pa., USA). After confluency, culture medium was changed to differentiation medium (DM), which contained 10% FBS plus 50 μg/mL ascorbic acid and 4 mM β-glycerol phosphate, with or without a test peptide (2 μg/mL). Fresh DM, with or without test peptide, was applied every 72 hours. The cell monolayers were lysed in a modified radioimmunoprecipitation assay (RIPA) buffer. Total cellular protein in the lysates was determined using BCA (Thermo Fisher Scientific, Rockford, Ill., USA). Cell proteins are separated on SD S-PAGE gel and transferred on PVDF membrane for analysis. Osteocalcin detection was performed using anti-osteocalcin antibody at 1:200 dilution (Santa Cruz Biotechnology, Inc, Santa Cruz, Calif., USA) and visualized using enhanced chemiluminescence (Thermo Fisher Scientific, Rockford, Ill., USA).

Data set [2] is described as follows: Pharmacokinetics in male Sprague Dawley rats after intravenous and subcutaneous injection (Example 10). It counts as in vivo. As to conditions: 1 μmol net peptide/kg, rat. The protocol: The peptides were reconstituted in saline (0.9% NaCl). Three male Sprague Dawley rats were used per group. Intravenous doses were administered into a lateral tail vein at the dose of 1 μmol net peptide/kg. Subcutaneous doses were administered into the right flank of each animal, also at the dose of 1 μmol net peptide/kg. Following dosing, serial whole blood samples (ca. 0.25 mL) were collected from a lateral tail vein into K2EDTA treated containers. Following each blood sample collection, samples were placed into a cooling block at 4° C. Samples were collected prior to dosing then at 2, 5, 15 and 30 minutes then 1, 2, 4, 6 and 8 and 24 hours post dose for intravenous injection and at 15 and 30 minutes then 1, 2, 4, 6, 8 and 24 hours post dose for subcutaneous injection.
Blood samples were centrifuged at 10000×g for 2 minutes at 4° C. and resultant plasma aspirated off into clean fully, labelled tubes. Plasma samples were snap frozen following aspiration then stored at −80° C. Peptides were extracted and analyzed as described in Example 9. The limits of quantification of these methods were 0.001 nmol/mL for cyclic HBD1 (3-11) and HBD1 (3-11) and 0.003 nmol/mL for HBD1 (1-13). All values below these limits of quantification were considered as zero.

In data set [3] the test system is MC-3T3 E1 clone 4 (CL4) osteoblast cells. Nature of the data set: Osteocalcin expression during in vitro osteoblast differentiation, acylated and cyclic analogs (Example 7). It counts as cell-based. As to conditions: for Fold increase vs DM ± SE: Table 18, test peptide 1 μg/L, 18-21 day interval. As for the experimental part: as §1, with “Each acylated” for “Each”, “(1 μg/L).” for “(2 μg/mL).”, “SDS-PAGE” for “SD S-PAGE”
In a separate experiment, the effect of cyclization was examined on of the HBD1 (3-11) peptide. The cyclic HBD1 (3-11) was synthetized and tested on the in vitro osteoblast differentiation assay.

A short description of data set [4]: Pharmacokinetics of acylated analogs in male Sprague Dawley rats after subcutaneous injection (Example 11). It counts as in vivo. As to conditions: sc, rat, Table 24. Also on record: AUC(0-t): concentration or dose not given beside the values. As for the experimental part:
The peptides were reconstituted in saline (0.9% NaCl). Three male Sprague Dawley rats (approximately 6 weeks of age) were used per group. Subcutaneous doses were administered into the right flank of each animal […]. Following dosing, serial whole blood samples (ca. 0.3 mL) were collected from retro-orbital sinus into K2EDTA treated containers. Following each blood sample collection, samples were placed into a cooling block at 4° C. Samples were collected prior to dosing then at 15 and 30 minutes then 1, 2, 4, 6, 8 and 24 hours post dose for subcutaneous injection. Blood samples were centrifuged at 3500×rpm for 10 minutes at 4° C. and resultant plasma aspirated off into clean fully, labelled tubes. Plasma samples were snap frozen following aspiration then stored at −80° C. The peptides were extracted with acetonitrile:water (75:25, v/v) and analyzed using developed LC-MS/MS methods as described in Example 9. The limits of detection of these methods are 0.003 nmol/mL for HBD1 (1-13) with palmitic acid at the N-terminus (C16:0), 0.0008 nmol/mL for HBD1 (3-11) with palmitic acid at the N-terminus (C16:0), 0.0070 nmol/mL for HBD1 (3-11) with stearic acid at the N-terminus (C18:0), and 0.0015 nmol/mL for HBD1 (3-11) with myristic acid at the N-terminus (C14:0), HBD1 (3-11) with arachidic acid at the N-terminus (C20:0), HBD1 (3-11) with palmitic diacid at the N-terminus (C16:0-diacid), HBD1 (3-11) with palmitic acid at the C-terminus (C16:0). All values below these limits of quantification were considered as zero.

[5] abbreviates: male, Sprague Dawley, plasma, iv.
[6] abbreviates: male, Sprague Dawley, plasma, sc.

Non-standard residues stand in square brackets, D forms with d. Residues, ends and D or L forms follow the SMILES beside them. Primed or numbered codes have the meaning given here. No end group written: not given here. *: point of attachment. PEG20′ = PEG20 chain (pegylated), attached via a cysteine; C16 diacid = O=C(O)CCCCCCCCCCCCCCC(=O)*; Arachidoyl = CCCCCCCCCCCCCCCCCCCC(=O)*; Palmitoyl = CCCCCCCCCCCCCCCC(=O)*; Myristoyl = CCCCCCCCCCCCCC(=O)*

For the compound “63 ([PEG20′]CKHHLGLEEPKKLR) [compound 63]”, in data set [1], the “Fold increase vs SEQ ID NO: 1 ± SE” value stood at 1.4 ± 0.3 fold.

On to “64 (KHHLGLEEPKKLR; not fully specified; MOD_RES (13)..(13) Pegylated) [compound 64]”, for which the “Fold increase vs SEQ ID NO: 1 ± SE” value in data set [1] is recorded as 2.2 ± 0.4 fold.

With 65 ([PEG20′]CHHLGLEEPKK) [compound 65], the “Fold increase vs SEQ ID NO: 1 ± SE” value in data set [1] was determined as 1.4 ± 0.1 fold.

Regarding “66 (HHLGLEEPKK; not fully specified; MOD_RES (10)..(10) Pegylated) [compound 66]”, the “Fold increase vs SEQ ID NO: 1 ± SE” value in data set [1] was 2.2 ± 0.2 fold.

As for 67 ([PEG20′]CHLGLEEPKK) [compound 67], in data set [1], the “Fold increase vs SEQ ID NO: 1 ± SE” value worked out at 1.9 ± 0.2 fold.

As to `CC(C)C[C@@H]1NC(=O)CNC(=O)[C@H](CC(C)C)NC(=O)[C@H](Cc2c[nH]cn2)NC(=O)[C@H](CCCCN)NC(=O)[C@H](CCCCN)NC(=O)[C@@H]2CCCN2C(=O)[C@H](CCC(=O)O)NC(=O)[C@H](CCC(=O)O)NC1=O` [SEQ ID NO: 77, Cyclic(HLGLEEPKK)] (cyclo(EEPKKHLGL)), the “Tlast (last time point with detectable peptide)” value (“Tlast” below) in data set [2] (iv, listed as Cyclic HBD1 (3-11)) is on record as 8 h; in data set [2] (sc, listed as Cyclic HBD1 (3-11)), 4 h; in data set [2] (sc, listed as cyclic HBD1 (3-11)), not above 4 h. Besides, in data set [2] (male, Sprague Dawley, plasma, subcutaneous, sc vs iv, read-out: F (bioavailability)), the bioavailability stood at 48%. Further, the AUC(0-t) in data set [2] (setting [5]) stood at 2.09 µM·h; in data set [2] (setting [6]) it was 0.99 µM·h. Also, the figures for the Cmax in data set [2] (setting [5]) and in data set [2] (setting [6]) were 5.72 µM and 1.06 µM, respectively. The Tmax in data set [2] (setting [5]) was determined as 1.98 min; in data set [2] (setting [6]) it was 15 min. The “in vitro biological activity of acylated or cyclic peptides vs parent peptides (in words)” value in data set [3] (text on Table 18 and separate experiment) was “did not appear to change the in vitro biological activity”.

For `CCCCCCCCCCCCCC(=O)N[C@@H](Cc1c[nH]cn1)C(=O)N[C@@H](CC(C)C)C(=O)NCC(=O)N[C@@H](CC(C)C)C(=O)N[C@@H](CCC(=O)O)C(=O)N[C@@H](CCC(=O)O)C(=O)N1CCC[C@H]1C(=O)N[C@@H](CCCCN)C(=O)N[C@@H](CCCCN)C(=O)O` [compound 71] (Myristoyl-HLGLEEPKK-OH; C-terminus assumed), the “Fold increase vs DM ± SE” value in data set [3] amounted to 1.98 ± 0.22 fold. In addition, in data set [4] (male, Sprague Dawley, plasma), the AUC(0-t) amounted to 1.11 µM·h, the Cmax is 240 nM and the Tmax came to 60 min. The “Tlast” value in data set [4] is on record as 6 h.

Regarding `CCCCCCCCCCCCCCCCCCCC(=O)N[C@@H](Cc1c[nH]cn1)C(=O)N[C@@H](CC(C)C)C(=O)NCC(=O)N[C@@H](CC(C)C)C(=O)N[C@@H](CCC(=O)O)C(=O)N[C@@H](CCC(=O)O)C(=O)N1CCC[C@H]1C(=O)N[C@@H](CCCCN)C(=O)N[C@@H](CCCCN)C(=O)O` [compound 74] (Arachidoyl-HLGLEEPKK-OH), the “Fold increase vs DM ± SE” value in data set [3] is recorded as 5.05 ± 0.95 fold. Moreover, in data set [4] (male, Sprague Dawley, plasma), the exposure AUC(0-t) is 2.58 µM·h, the Cmax was determined as 250 nM and the Tmax came out at 120 min. Further, in data set [4], the “Tlast” value came out at 8 h.

Turning to `CC(C)C[C@H](NC(=O)CNC(=O)[C@H](CC(C)C)NC(=O)[C@H](Cc1c[nH]cn1)NC(=O)CCCCCCCCCCCCCCC(=O)O)C(=O)N[C@@H](CCC(=O)O)C(=O)N[C@@H](CCC(=O)O)C(=O)N1CCC[C@H]1C(=O)N[C@@H](CCCCN)C(=O)N[C@@H](CCCCN)C(=O)O` [compound 75] ({C16 diacid}-HLGLEEPKK-OH; C-terminus assumed), in data set [3], the “Fold increase vs DM ± SE” value is 3.39 ± 0.19 fold. Also, in data set [4] (male, Sprague Dawley, plasma), the AUC(0-t) is 1.14 µM·h, the Cmax is 580 nM and the Tmax is 15 min. Also, in data set [4], the “Tlast” value worked out at 8 h.

For the compound `CCCCCCCCCCCCCCCC(=O)NCCCC[C@H](NC(=O)[C@H](CCCCN)NC(=O)[C@@H]1CCCN1C(=O)[C@H](CCC(=O)O)NC(=O)[C@H](CCC(=O)O)NC(=O)[C@H](CC(C)C)NC(=O)CNC(=O)[C@H](CC(C)C)NC(=O)[C@@H](N)Cc1c[nH]cn1)C(=O)O` [compound 76] (H-HLGLEEPKK(Palmitoyl)-OH; N-terminus and C-terminus assumed), the “Fold increase vs DM ± SE” value in data set [3] stood at 3.18 ± 0.31 fold. For the same compound, in data set [4] (in vivo), the AUC(0-t) turned out to be 1.09 µM·h, the Cmax came to 500 nM and the Tmax stood at 15 min. Besides, the “Tlast” value in data set [4] stood at 8 h.

For orientation: bioavailability means the share of a dose that reaches the circulation, judged against a reference dose that is usually intravenous. The AUC(0-t) is exposure summed from dosing to a finite time, without extrapolation to infinity. Broadly, the Cmax is the peak of the concentration-time curve. As usually defined, the Tmax is the time from dosing to the highest level.
